Assay [1] deals with wild-type control and global MOR KO mice. As to the kind of experiment: Chronic morphine analgesic tolerance and OIH in wild-type control and global MOR KO mice (thermal tail immersion). The class given is in vivo, mouse. As for the experimental part: These treatments were given for 6 days (Days 2-7). […] (b) Untransformed, raw sensory threshold scores for same data presented in FIG. 1, panels a and b. n=6 for all groups. ★ P<0.05. Error bars are±SEM.
(§1) The tail-immersion test was used to evaluate thermal reflexive hypersensitivity (Woolf, 1984) with the temperature of the water bath being set to 48-52.5° C. The mouse was gently restrained and 2 cm of the tip of the tail was submerged in the water bath, and the latency (seconds) to reflexively withdraw the tail from the water was recorded as a positive nociceptive reflex response. A maximal cut-off of 45-60 s was set to prevent tissue damage.

Assay [2] relates to MOR cKO mice and littermate controls. Briefly: Acute morphine antinociception in MOR cKO mice and littermate controls (von Frey, tail immersion, hotplate). It is filed as in vivo, mouse. The source says: (§2) To evaluate mechanical reflexive hypersensitivity (Weibel et al., 2013), we used a logarithmically increasing set of 8 von Frey filaments (Stoelting), ranging in gram force from 0.007 to 6.0 g. These were applied perpendicular to the plantar hindpaw with sufficient force to cause a slight bending of the filament. A positive response was characterized as a rapid withdrawal of the paw away from the stimulus filament within 4 s. Using the up-down statistical method (Solway et al., 2011), the 50% withdrawal mechanical threshold scores were calculated for each mouse and then averaged across the experimental groups.

Assay [3] has the same test system. Briefly: 10 day chronic morphine schedule: antinociceptive tolerance and OIH in MOR cKO mice and littermate controls. The class given is in vivo, mouse. The conditions noted are these: 10 mg/kg subcutaneous once daily for 10 days. The method, then:
Nociceptive behavior (pre-morphine BL timepoints only): von Frey: F1, 30=9.863, P=0.004; tail immersion: F1, 30=0.7311; hotplate: F1, 30=[…]. Antinociception (post-morphine+30 min timepoints only): von Frey: F1, 30=4.812, P=0.0367; tail immersion: F1, 30=19.74, P<0.0001; hotplate: F1, 30=17.23, P=0.0004. […] Control, n=19; MOR cKO, n=13. BL=baseline. […] Repeated Measures Two-way ANOVA+Bonferroni (a,d,g and left panels of b,c,e,f,h,i). ★ P<0.05. Error bars are mean±SEM. Overlaid points are individual animal scores. BL=baseline.
as §1
The hotplate test was used to evaluate thermal-induced affective-motivational responses (Woolf, 1984) with the plate temperature being set to 50-52.5° C.). Mice were place on the plate and the latency (seconds) to the first appearance of an attending response (lick and/or bite at one or both hindpaws) was recorded as a positive affective-motivational response. A maximal cut-off of 45 s was set to prevent tissue damage.
Next the development of morphine antinociceptive tolerance and OIH in MOR cKO mice was evaluated. […] We measured thermal and mechanical nociceptive thresholds, and affective-motivational responses to noxious thermal stimuli prior to, and 30 min after, each daily injection, to evaluate OIH and tolerance, respectively (FIG. 3, panels a, d, g).

Another assay deals with wild-type C57Bl/6J mice. Briefly: Morphine and MNB combination in wild-type mice: nociceptive reflexes, affective-motivational behaviors, tolerance and OIH. It is filed as in vivo, mouse. The method, then:
(a) Temporal raster plot of nociception-induced sensory-reflexive and affective-motivational behaviors in an inescapable noxious environment (enclosed 52.5° C. hotplate). […] MNB doses 0.0-1.0 mg/kg, n=10; MNB 10 mg/kg, n=7 for reflexive tests and n=5 for affective-motivational tests. Best-fit lines were generated following non-linear regression analysis based on the % MPE for each mouse. One-way ANOVA+Bonferroni (left panels of b,d,f-k). ★ P<0.05. Error bars are mean±SEM. Overlaid points are individual animal scores. PID=post-injury day.
(b) Visual depiction of reflexive paw flinching behavior. (c) Latencies to the first paw flinch. (d) Number of paw flinches (see FIG. 17). (e) Visual depiction of hindpaw guarding behavior. (f) Latency to the first onset of hindpaw guarding. (g) Total duration of time spent engaged in hindpaw guarding. (h) Visual depiction of hindpaw attending. (i) Latency to the first onset of hindpaw attending. (j) Total duration of time spent engaging in hindpaw attending. (k) Visual depiction of escape jumping behavior. (1) Latency to the first jump. […] (m) Number of escape jumps. […] Error bars are±SEM.
Repeated Measures 2-way ANOVA+Bonferonni. ★ P<0.05. Error bars are mean±SEM.
as §2
(§3) To evaluate affective-motivational responses to an acute, focal thermal stimulus (Madisen et al., 2012), we applied either a single, unilateral 50 μl drop of 55° C. water or acetone (evaporative cooling) to the left hindpaw, and the duration of attending behavior was collected for up to 30 seconds after the stimulation. Only one stimulation per thermal drop was applied on a given testing session, in order to prevent behavioral sensitization that can result from multiple noxious stimulations and then averaging those responses.
To evaluate affective-motivational responses to a sustained, inescapable noxious thermal stimulus, mice were placed on a 52.5° C. hot plate for 45 seconds. A high-speed camera (on the side, level with the hot plate floor) was used to capture the movement, speed, velocity, and detailed reflexive and affective-motivational behaviors of the mice, as described above.
As opposed to the standard hot-plate test, all behaviors such as reflexive paw flinching (rapid flicking of the limb), paw attending (directed licking of the limb), paw guarding (intentional lift protection of the limb), and escape jumping for the duration of the trial were scored. This allowed the analysis of the high-speed videos, blinded to plate temperature or treatment, for the total time spent engaging in affective-motivational behaviors and the number of nociceptive reflexives, as opposed to the traditional metric of merely determining the latency to the first reflexive response.

The subject of assay [4] is mice with tibia fracture and bone pinning. The conditions noted are these: morphine alone 10 mg/kg.
From the text: (§4) Error bars are mean±SEM. Overlaid points are individual animal scores. PID=post-injury day.
as §4, §2, §3

Assay [5] has as its system mice with chronic constriction injury (CCI) of the sciatic nerve. The conditions noted are these: CCI + morphine alone 10 mg/kg.
From the text: as §4, §2, §3

Where [6] appears, read: subcutaneous morphine 10 mg/kg, acute.

This note sets out measurements from US20180214442A1, “METHODS FOR ATTENUATING OR PREVENTING MU(μ)-OPIOID RECEPTOR MEDIATED TOLERANCE AND OPIOID-INDUCED […]” (The Board of Trustees of the Leland Stanford Junior …, priority 2017, published 2018).

Regarding `CN1CC[C@]23c4c5ccc(O)c4O[C@H]2[C@@H](O)C=C[C@H]3[C@H]1C5.O=S(=O)(O)O` [morphine, Morphine sulfate], the OIH entry in assay [1] (global MOR KO mice, twice daily escalating 10 to 40 mg/kg schedule) was “no OIH”; in assay [5], “No indications of OIH”. The “analgesic tolerance and OIH” value in assay [1] (wild-type mice, chronic morphine, fixed once daily 10 mg/kg or twice daily escalating 10 to 40 mg/kg, subcutaneous) is “significant tolerance and OIH”. For the same compound, in assay [2] (MOR cKO mice, acute intrathecal 1 μg), the “reflexive or affective-motivational antinociception” value is given as “did not produce significant reflexive or affective-motivational antinociception”. In assay [2] (MOR cKO mice, subcutaneous 10 mg/kg), the “reflexive and affective-motivational antinociception” value is “maximal reflexive and affective-motivational antinociception”. Further, in assay [2] (control mice, acute intrathecal 1 μg), the antinociception entry is given as “robust antinociception”. Also, the “OIH for thermal and mechanical stimuli” value in assay [3] (MOR cKO mice vs controls) is given as “significantly less OIH than controls”. Also, the “morphine antinociception over chronic treatment (tolerance)” value in assay [3] (MOR cKO mice) was “retained near full antinociceptive efficacy”; in assay [3] (littermate controls), “progressively diminished”. In addition, the “antinociceptive tolerance and OIH, reflexive and affective-motivational measures” value with wild-type C57Bl/6J mice (morphine alone 10 mg/kg once daily for 7 days, Day 7 compared to Day 1) is “robust antinociceptive tolerance and OIH”. Besides, the affective-motivational behaviors entry in the assay on wild-type C57Bl/6J mice (setting [6]) is reported as “effective at alleviating affective-motivational behaviors”. Further, the nociceptive reflexes entry in the assay on wild-type C57Bl/6J mice (setting [6]) was “significantly reduce nociceptive reflexes”. Moreover, the “reduction of nociceptive or affective-motivational orthotrauma pain after chronic treatment” value in assay [4] (after 7 days of chronic treatment) is “no longer effective”. Moreover, the “antinociception, acute” value in assay [4] (first administration) was “acutely produced antinociception”.
